Measurements as given in US11597739B2, “Enhancing CD8+ T cells for adoptive T cell therapy by inhibiting PTPN1 (PTP1B) and PTPN2 (TC-PTP)” (The Royal Institution for the Advancement of …, priority 2017, dated 2023).

Test system: mouse CD8 T cells differentiated into Tcm cells
Experiment: Exhaustion and effector markers after CTL re-stimulation (flow cytometry)
Assay type: cell-based
Conditions: second stimulation with anti-CD3, anti-CD28 and IL-2 for 5 days
From the text: FIG. 8 illustrates that pharmacological inhibition of PTPN1/2 reduces expression of exhaustion markers and increases effector-molecule expression after CTL re-stimulation. Flow cytometric analysis of CD8 T cells differentiated into Tcm cells after 5 days of a second stimulation with anti-CD3 and anti-CD28 in presence or absence of K884. Histograms show the expression of exhaustion markers PD-1, CTLA-4, KLRG1 and LAG-3, and granzyme B and IFN-γ as markers of effector CTLs. Cells are gated on live/CD8+/CD62L^high.
2 μg/ml of 145-2C11 Hamster anti-Mouse CD3e in 300 μl of PBS are plated in 24 flat bottom well non-TC treated plates. Incubate O/N at 4° C. CD8 T cells from spleens of 8-12 weeks old OT-1 transgenic mice are isolated. 4×10^5 cells/ml are counted and resuspended in complete RPMI (RPMI+10% FBS heat inactivated at 55° C. for 45 min+Pen/Strep+55 μM β-Mercaptoethanol). The following 2× solutions are prepared:
0.5 ml of 2× solution is added to the corresponding wells. Incubate for 4-8 days. Every 2 days add inhibitor to the corresponding concentration. When the cells are confluent, expand to 6 cm tissue culture plates adding 4 ml of complete RPMI+20 U/ml of IL-2 and in b add 10 μM K884.
Calculate the specific cell lysis as follows: Specific cell lysis=((Sample−BF)/(AF−BF))×100 10) Flow Cytometry 1. Cell Activation • a. Wash cells with 1 ml of culture medium; • b. Centrifuge cells for 5 min at 300 g; • c. Resuspend cells in culture medium; • d. Prepare 2× solutions (negative control with only culture medium, Positive condition with 50 ng/mL of PMA and 500 ng/mL of lonomycin); • e. Plate 100 μL of cell suspension in 96 well plates (U-bottom); • f. Add 100 μL of 2× solutions in appropriate wells; • g. Incubate 4 hours at 37 C, 5% CO2. 2. Extracellular Staining • a. Record cell quantity transfers per tube; • b. Wash cells with 1 mL of PBS+2% FBS; • c. Centrifuge cells for 5 min at 300 g; • d. Empty tubes by inversion; • e. Add the antibodies for extracellular staining; • f. Incubate 20 min at 4° C.; • g. Wash cells with 1 mL of PBS+2% FBS; • h. Centrifuge cells for 5 min at 300 g; • i. […]

Question: Which results are given for `CCOC(=O)c1cc2cc(C(F)(F)P(=O)(O)O)c(Br)cc2s1` [Ex. 1, ((6-BROMO-2-(ETHOXYCARBONYL)BENZO[B]THIOPHEN-5-YL)DIFLUOROMETHYL)PHOSPHONATE]?
Answer: expression of exhaustion markers PD-1, CTLA-4, KLRG1: displayed less exhaustion markers PD-1, CDTLA4 and KLRG1; expression of the receptor LAG-3: increased expression of the receptor LAG-3; levels of Granzyme B and IFN-gamma: higher levels of Granzyme B and IFN-gamma
